Test system: 299254-011-R-J1-PDC complex spheroids viability
Experiment: Anticancer human tumor 299254-011-R-J1-PDC patient-derived melanoma cell line growth inhibition [GQUAD]
Conditions: for IC50: curve of first compound; for viability, T/C: stronger effect = lower value; active = viability on the fitted dose curve at most 10% of control; inactive = the rest
In short: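 Tumor cells were grown as complex spheroids with HUVEC endothelial cells and mesenchymal stem cells as stroma. G-quadruplex stabilizers were combined with targeted agents over half-log dilutions from near the clinical Cmax, or from 10 microM.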

[1] = second compound 0.0316 µM, first compound 0.0316 µM
[2] = second compound 0.0316 µM, first compound 0.1 µM
[3] = second compound 0.0316 µM, first compound 0.316 µM
[4] = second compound 0.0316 µM, first compound 1 µM
[5] = second compound 0.0316 µM, first compound 3.16 µM
[6] = second compound 0.0316 µM, first compound 10 µM
[7] = second compound 0.1 µM, first compound 0.0316 µM
[8] = second compound 0.1 µM, first compound 0.1 µM
[9] = second compound 0.1 µM, first compound 0.316 µM
[10] = second compound 0.1 µM, first compound 1 µM
[11] = second compound 0.1 µM, first compound 3.16 µM
[12] = second compound 0.1 µM, first compound 10 µM
[13] = second compound 0.316 µM, first compound 0.0316 µM
[14] = second compound 0.316 µM, first compound 0.1 µM
[15] = second compound 0.316 µM, first compound 0.316 µM
[16] = second compound 0.316 µM, first compound 1 µM
[17] = second compound 0.316 µM, first compound 3.16 µM
[18] = second compound 0.316 µM, first compound 10 µM
[19] = second compound 1 µM, first compound 0.0316 µM
[20] = second compound 1 µM, first compound 0.1 µM
[21] = second compound 1 µM, first compound 0.316 µM
[22] = second compound 1 µM, first compound 1 µM
[23] = second compound 1 µM, first compound 3.16 µM
[24] = second compound 1 µM, first compound 10 µM
[25] = second compound 3.16 µM, first compound 0.0316 µM
[26] = second compound 3.16 µM, first compound 0.1 µM
[27] = second compound 3.16 µM, first compound 0.316 µM
[28] = second compound 3.16 µM, first compound 1 µM
[29] = second compound 3.16 µM, first compound 3.16 µM
[30] = second compound 3.16 µM, first compound 10 µM
[31] = second compound 10 µM, first compound 0.0316 µM
[32] = second compound 10 µM, first compound 0.1 µM
[33] = second compound 10 µM, first compound 0.316 µM
[34] = second compound 10 µM, first compound 1 µM
[35] = second compound 10 µM, first compound 3.16 µM
[36] = second compound 10 µM, first compound 10 µM
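Note: spheroids exposed to the agents for seven days before readout.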
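Throughout, for viability, T/C: percent viability relative to DMSO vehicle control wells = 100%.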

C=CC(=O)N1CCN(c2nc(=O)n(-c3c(C)ccnc3C(C)C)c3nc(-c4c(O)cccc4F)c(F)cc23)C(C)C1 (centres undefined) + Cc1[nH]c2ccc(F)cc2c1-c1nc2c3cccnc3c3ncccc3c2[nH]1
inactive: viability, T/C [1] 85% | viability, T/C [2] 63.2% | viability, T/C [3] 62% | viability, T/C [4] 56% | viability, T/C [5] 67.1% | viability, T/C [6] 75.7% | viability, T/C [7] 72.9% | viability, T/C [8] 85% | viability, T/C [9] 60.5% | viability, T/C [10] 56.7% | viability, T/C [11] 66.2% | viability, T/C [12] 78.3% | viability, T/C [13] 67.3% | viability, T/C [14] 80.1% | viability, T/C [15] 63.1% | viability, T/C [16] 64.6% | viability, T/C [17] 74.2% | viability, T/C [18] 69.9% | viability, T/C [19] 67.8% | viability, T/C [20] 69.4% | viability, T/C [21] 66.2% | viability, T/C [22] 79.8% | viability, T/C [23] 63.7% | viability, T/C [24] 86.8% | viability, T/C [25] 73% | viability, T/C [26] 81.1% | viability, T/C [27] 73.8% | viability, T/C [28] 78.4% | viability, T/C [29] 74.7% | viability, T/C [30] 69.9% | viability, T/C [31] 74.4% | viability, T/C [32] 71.5% | viability, T/C [33] 72.5% | viability, T/C [34] 67.1% | viability, T/C [35] 77.6% | viability, T/C [36] 59.4%
> 10 µM: IC50 (second compound 0.0316 µM) | IC50 (second compound 0.1 µM) | IC50 (second compound 0.316 µM) | IC50 (second compound 1 µM) | IC50 (second compound 3.16 µM) | IC50 (second compound 10 µM)

C#Cc1c(F)ccc2cc(O)cc(-c3ncc4c(N5CC6CCC(C5)N6)nc(OCC56CCCN5CC(F)C6)nc4c3F)c12 (centres undefined) + Cc1cnc(CNC(=O)c2c(=O)c3ccc(N4CCCN(C)CC4)nc3n3c2sc2ccccc23)cn1
active: viability, T/C [36] 0.39%
inactive: viability, T/C [1] 108% | viability, T/C [2] 87.8% | viability, T/C [3] 102% | viability, T/C [4] 93% | viability, T/C [5] 96.2% | viability, T/C [6] 79.8% | viability, T/C [7] 123% | viability, T/C [8] 99.2% | viability, T/C [9] 122% | viability, T/C [10] 91.7% | viability, T/C [11] 103% | viability, T/C [12] 80.5% | viability, T/C [13] 113% | viability, T/C [14] 115% | viability, T/C [15] 117% | viability, T/C [16] 87.1% | viability, T/C [17] 91.1% | viability, T/C [18] 74.1% | viability, T/C [19] 81% | viability, T/C [20] 105% | viability, T/C [21] 94.4% | viability, T/C [22] 102% | viability, T/C [23] 83.1% | viability, T/C [24] 85.6% | viability, T/C [25] 74.8% | viability, T/C [26] 103% | viability, T/C [27] 99.8% | viability, T/C [28] 85.8% | viability, T/C [29] 83.4% | viability, T/C [30] 88.6% | viability, T/C [31] 50.6% | viability, T/C [32] 18.7% | viability, T/C [33] 43.6% | viability, T/C [34] 33.4% | viability, T/C [35] 51.3%
> 10 µM: IC50 (second compound 0.0316 µM) | IC50 (second compound 0.1 µM) | IC50 (second compound 0.316 µM) | IC50 (second compound 1 µM) | IC50 (second compound 3.16 µM)
< 0.0316 µM: IC50 (second compound 10 µM)
